Results reported in US8183252B2, “Heterocyclic aspartyl protease inhibitors” (Schering Corporation, priority 2007, dated 2012).

These molecules were tested against T1, human BACE1 (sproBACE1) (Homo sapiens, UniProt P56817) (assay: BACE-1 Peptide Hydrolysis Assay (HTRF)). Settings: not given.
T1 construct: sBACE1, corresponding to amino acids 1-454; made in house; host or cells: Sf9 insect cells (baculovirus), secreted into the medium
Assay type: biochemical
Excerpt: A HindIII/PmeI fragment from pCDNA4-sBACE1myc/His was blunt ended using Klenow and subcloned into the Stu I site of PFASTBACI(A) (Invitrogen). A sBACE1mycHis recombinant bacmid was generated by transposition in DH10Bac cells (GIBCO/BRL). Subsequently, the sBACE1mycHis bacmid construct was transfected into sf9 cells using CellFectin (Invitrogen, San Diego, Calif.) in order to generate recombinant baculovirus. […] Five milliliters of high titer plaque purified sBACEmyc/His virus was used to infect 1 L of logarithmically growing sf9 cells for 72 hours. Intact cells were pelleted by centrifugation at 3000×g for 15 minutes. The supernatant, containing secreted sBACE1, was collected and diluted 50% v/v with 100 mM HEPES, pH 8.0. The diluted medium was loaded onto a Q-sepharose column. The Q-sepharose column was washed with Buffer A (20 mM HEPES, pH 8.0, 50 mM NaCl).
Proteins, were eluted from the Q-sepharose column with Buffer B (20 mM HEPES, pH 8.0, 500 mM NaCl). The protein peaks from the Q-sepharose column were pooled and loaded onto a Ni-NTA agarose column. The Ni-NTA column was then washed with Buffer C (20 mM HEPES, pH 8.0, 500 mM NaCl). Bound proteins were then eluted with Buffer D (Buffer C+250 mM imidazole).
Reactions were initiated by addition of substrate in a 5 μl aliquot resulting in a total volume of 25 μl. After 3 hr at 30° C. reactions were terminated by addition of an equal volume of 2× stop buffer containing 50 mM Tris-HCl pH 8.0, 0.5 M KF, 0.001% Brij-35, 20 μg/ml SA-XL665 (cross-linked allophycocyanin protein coupled to streptavidin; CIS-Bio International, France) (0.5 μg/well). Plates were shaken briefly and spun at 1200×g for 10 seconds to pellet all liquid to the bottom of the plate before the incubation.
Y=Bottom+(Top-Bottom)/(1+10^((LogEC50−X)*Hill Slope)); X is the logarithm of concentration of I, Y is the percent change in ratio and Y starts at bottom and goes to top with a sigmoid shape.

T1 sequence (P56817 22-454): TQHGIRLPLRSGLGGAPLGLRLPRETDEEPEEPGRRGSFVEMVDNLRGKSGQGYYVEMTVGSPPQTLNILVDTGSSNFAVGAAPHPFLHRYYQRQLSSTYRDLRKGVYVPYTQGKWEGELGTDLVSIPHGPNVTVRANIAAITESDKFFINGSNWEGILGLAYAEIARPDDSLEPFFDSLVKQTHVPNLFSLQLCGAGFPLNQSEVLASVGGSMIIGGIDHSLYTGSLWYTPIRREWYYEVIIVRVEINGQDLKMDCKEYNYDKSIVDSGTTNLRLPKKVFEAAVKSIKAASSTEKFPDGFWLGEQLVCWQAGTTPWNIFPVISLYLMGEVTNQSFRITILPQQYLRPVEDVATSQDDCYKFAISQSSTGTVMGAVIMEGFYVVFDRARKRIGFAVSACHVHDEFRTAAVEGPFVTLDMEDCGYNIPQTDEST

Compound	Ki
CC(=O)N1CCC(CN2C(=N)NC(C)(c3cccc(-c4cccc5[nH]ccc45)c3)C2=O)CC1 (centres unmarked)	< 5 µM

Same assay, conditions: read-out: BACE-1 Ki

Ki	Compound
< 5 µM	N=C1NC(c2ccccc2)(c2ccccc2)C(=O)N1CC1CCOCC1
< 5 µM	CC1(c2cccc(-c3cccnc3)c2)NC(=N)N(Cc2cccc(N3CCCCS3(=O)=O)c2)C1=O (racemic)
< 5 µM	CN1C(=N)N[C@](C)(c2cc(-c3cc(C#N)ccc3O)cs2)CC1=O
< 5 µM	CCCS(=O)(=O)Nc1cccc(CN2C(=N)NC(c3ccccc3)(c3ccccc3)C2=O)c1
< 5 µM	N=C1NC(c2ccccc2)(c2ccccc2)C(=O)N1Cc1cccc(NS(=O)(=O)C2CC2)c1
< 5 µM	CC1(c2cccc(-c3cccc(Cl)c3)c2)NC(=N)N(CC2CCN(C(=O)C3CCCCC3)C2)C1=O (centres unmarked)
< 5 µM	CN1C(=N)N[C@](C)(c2cc(-c3cc(C#N)cc(C#N)c3)nn2C)CC1=O
< 5 µM	COCC1CCCN1C(=O)c1cncc(CN2C(=N)NC(c3ccccc3)(C3CC3)C2=O)c1 (centres unmarked)
< 5 µM	COc1cccc(-c2cccc(C3(C)CON(C)C(=N)N3)c2)c1 (centres unmarked)
< 5 µM	CN1C(=N)NC(c2cc(-c3cncc(Cl)c3)cs2)(C2CC2)C1=O (centres unmarked)
< 5 µM	CN1C(=N)N[C@](C)(c2cc3cccc(Br)c3s2)CC1=O
< 5 µM	CN1C(=N)N[C@](C)(c2ncc(-c3cc(F)cc(C#N)c3)s2)CC1=O
< 5 µM	CN1C(=N)N[C@](C)(c2csc3c(-c4cccc(C#N)c4)cccc23)CC1=O
< 5 µM	CN1C(=N)N[C@](CCC2CCCCC2)(C[C@H]2CCC[C@@H](NCCc3ccccc3)C2)C1=O
< 5 µM	CN1C(=N)NC(c2cccc(Br)c2)(C2CCCCC2)C1=O (centres unmarked) [5-(3-BROMOPHENYL)-5-CYCLOHEXYL-2-IMINO-3-METHYL-4-IMIDAZOLIDINONE]
< 5 µM	N=C1NC(c2ccccc2)(c2ccccc2)C(=O)N1CC1CCN(S(=O)(=O)c2ccc(OC(F)(F)F)cc2)CC1 [piperidine, 4-[(2-imino-5-oxo-4,4-diphenyl-1-imidazolidinyl)methyl]-1-[[4-(trifluoromethoxy)phenyl]sulfonyl]-]
< 5 µM	CCN(CCc1cccc(C2(c3ccccc3)NC(=N)N(C)C2=O)c1)C(C)=O (racemic)
< 5 µM	CN1C(=N)NC(C)(c2cccc(-c3cncc(F)c3)c2)C1=O (centres unmarked)
< 5 µM	CN1C(=N)N[C@](CCC2CCCCC2)(C[C@H]2CCC[C@@H](NC(=O)C3CCCC3)C2)C1=O
< 5 µM	CN1C(=N)N[C@@](c2cccc(-c3ccc(F)c(C#N)c3)c2)(C2CC2)C1=O

Ki	Compound
< 5 µM	N=C1NC(c2ccccc2)(c2ccccc2)C(=O)N1Cc1cccc(NC(=O)c2ccccc2)c1 [BENZAMIDE, N-[3-[(2-IMINO-5-OXO-4,4-DIPHENYL-1-IMIDAZOLIDINYL)METHYL]PHENYL]-]
< 5 µM	CN1C(=N)N[C@](CCc2ccccc2)(C[C@H]2CCC[C@@H](NC(=O)c3ccncc3)C2)C1=O
< 5 µM	CN1C(=N)NC(c2ccccc2)(c2cccc(NCc3ccccc3)c2)C1=O (racemic)
< 5 µM	CN1OCC(C)(c2cccc(-c3cccc(C#N)c3)c2)NC1=N (centres unmarked)
< 5 µM	CCCS(=O)(=O)N1CCC(CN2C(=N)NC(c3ccccc3)(c3ccccc3)C2=O)CC1 [piperidine, 4-[(2-imino-5-oxo-4,4-diphenyl-1-imidazolidinyl)methyl]-1-(propylsulfonyl)-]
< 5 µM	C=C1C(=O)N(C)C(=N)N[C@]1(C)c1cccc(-c2cccc(C#N)c2)c1
< 5 µM	CCC[C@H]1C(=O)N(C)C(=N)N[C@]1(C)c1cccc(-c2cccc(C#N)c2)c1
< 5 µM	Cn1nccc1CN1C(=N)NC(c2ccccc2)(c2ccccc2)C1=O
< 5 µM	CN1C(=N)N[C@](C)(c2sccc2Cl)CC1=O
< 5 µM	CC[C@H]1C(=O)N(C)C(=N)N[C@]1(C)c1cccc(-c2cccc(OC)c2)c1
< 5 µM	CCCN(CCC)C(=O)c1ncc(CN2C(=N)NC(c3ccccc3)(c3ccccc3)C2=O)[nH]1
< 5 µM	CN1C(=N)N[C@](C)(c2ccc3scc(CCC4CC4)c3c2)CC1=O
< 5 µM	CN1C(=N)NC(c2ccccc2)(c2cccc(NS(=O)(=O)c3ccccc3)c2)C1=O (racemic)
< 5 µM	CN1C(=N)NC(c2ccccc2)(c2cc(-c3cccc(F)c3)cs2)C1=O (centres unmarked) [5-[4-(3-FLUOROPHENYL)-2-THIENYL]-2-IMINO-3-METHYL-5-PHENYL-4-IMIDAZOLIDINONE]
< 5 µM	CN1C(=N)NC(C)(c2ccc(F)c(-c3cccnc3)c2)C1=O (racemic)
< 5 µM	CN1C(=N)N[C@](C)(c2nc(-c3cccnc3)cs2)CC1=O
< 5 µM	CN1C(=N)N[C@](CCc2ccccc2)(C[C@H]2CCC[C@@H](Nc3cccnc3)C2)C1=O
< 5 µM	Cc1ccc(-c2csc([C@]3(C)CC(=O)N(C)C(=N)N3)c2)cc1C#N
< 5 µM	CN1C(=N)N[C@](C)(c2c(F)cc(F)cc2F)[C@@H](c2ccc(C(C)(F)F)cc2)C1=O
< 5 µM	COc1ccccc1C(=O)NCc1ccc(Cl)cc1-c1cccc(C2(C)NC(=N)N(C)C2=O)c1 (centres unmarked) [benzamide, N-[[5-chloro-3′-(2-imino-1,4-dimethyl-5-oxo-4-imidazolidinyl)[1,1′-biphenyl]-2-yl]methyl]-2-methoxy-]

Ki	Compound
< 5 µM	CN1C(=N)NC(C)(c2ccnc(-c3cc(Cl)cc(Cl)c3)c2)C1=O (centres unmarked)
< 5 µM	CN1C(=N)N[C@](C)(c2ccc3scc(-c4ccc(C#N)s4)c3c2)CC1=O
< 5 µM	CN1C(=N)N[C@](C)(c2ccc(-c3cc(Cl)cc(C#N)c3)s2)[C@@H](C2CC2)C1=O
< 5 µM	N=C1NC(c2ccccc2)(c2ccccc2)C(=O)N1CC1CCN(S(=O)(=O)c2ccc3ccccc3c2)CC1 [piperidine, 4-[(2-imino-5-oxo-4,4-diphenyl-1-imidazolidinyl)methyl]-1-(2-naphthalenylsulfonyl)-]
< 5 µM	CN1C(=N)N[C@@]2(CCCc3sc(-c4ccc(F)c(C#N)c4)cc32)CC1=O
< 5 µM	CN1C(=N)NC(c2ccccc2)(c2cc(-c3cccc(Cl)c3)cs2)C1=O (centres unmarked) [5-[4-(3-CHLOROPHENYL)-2-THIENYL]-2-IMINO-3-METHYL-5-PHENYL-4-IMIDAZOLIDINONE]
< 5 µM	CC1(c2cccc(-c3cccc(Cl)c3)c2)NC(=N)N(CC2CCN(C(=O)Cc3ccccc3)C2)C1=O (centres unmarked)
< 5 µM	N=C1NC(c2cccc(-c3cccc(Cl)c3)c2)(C2CC2)C(=O)N1C(CO)CO (centres unmarked) [4-imidazolidinone, 5-(3′-chloro[1,1′-biphenyl]-3-yl)-5-cyclopropyl-3-[2-hydroxy-1-(hydroxymethyl)ethyl]-2-imino-]
< 5 µM	CN1C(=N)N[C@](C)(c2cc(-c3cccnc3)c3sccc3c2)CC1=O
< 5 µM	CN1C(=N)NC(CCc2ccccc2)(CC2CCCC(Nc3ccccn3)C2)C1=O (centres unmarked)
< 5 µM	CN1C(=N)N[C@](C)(c2ncc(-c3cccc(Cl)c3)s2)CC1=O
< 5 µM	N=C1NC(c2ccccc2)(c2cccc(-c3cccnc3)c2)C(=O)N1CC1CCNCC1 (centres unmarked)
< 5 µM	CC(C)CC(=O)Nc1cccc(CN2C(=N)NC(c3ccccc3)(c3ccccc3)C2=O)c1
< 5 µM	CN1C(=N)NC(C)(c2cc(-c3cccc(C#N)c3)cs2)C(CCCc2ccncc2)C1=O (centres unmarked)
< 5 µM	CC1(c2cccc(-c3cccc(Cl)c3)c2)NC(=N)N(CC2CCN(C(=O)CC3CCCCC3)C2)C1=O (centres unmarked)
< 5 µM	CN1C(=N)NC(C)(c2cccc(-c3cc(Cl)ccc3CCOC=O)c2)C1=O (centres unmarked)
< 5 µM	CN1C(=N)N[C@](CCc2ccccc2)(C[C@H]2CCC[C@@H](NC3CCCCC3)C2)C1=O
< 5 µM	CN1C(=N)N[C@@](c2cccc(-c3cc(Br)ccn3)c2)(C2CC2)C1=O
